For one series, the system named is HelaP4 cells. Format: cell-based. On the procedure: We therefore analyzed this peptide further, with respect to functional interference with HIV-1 replication. After fusion to a protein transduction domain, different amounts of the DDX3-INS1 peptide or a control peptide were transduced into HelaP4 cells 24 hours after infection with HIV-1Lai. HIV-1 infection was quantified 48–72 hours after infection by titering released HIV-1 in culture supernatants on Tzm-bl cells based on measuring the luciferase activity in the cell lysates. […] The DDX3-INS1 peptide was not toxic for the cells in the concentration range used (data not shown). Thus, binding of the peptide ligand to the DDX3 insertion, interferes with HIV-1 replication further providing evidence of an important functional role of the DDX3 insertion not only for enzymatic functions, but also for HIV-1 replication.

Series [1] can be described thus: ATPase time-course (burst kinetics). Type of series: biochemical. On the procedure: (§1) The ATPase activity was determined, as previously described, by directly monitoring [γ-^32P] ATP hydrolysis by thin-layer chromatography (TLC). ATP (3000 Ci/mmol) as tracer, plus 1 mM of cold ATP, unless otherwise stated, and nucleic acids as indicated. Samples were incubated for 5 minutes at 25°C and dotted onto TLC sheets of polyethylenimine cellulose. The products were separated by ascending chromatography with 0.5 M KH2PO4 (pH 3.4). The intensities of the radioactive bands corresponding to ATP and Pi were quantified by densitometric scanning with PhosphoImager. For the stimulation of the ATPase activity, the ssDNA oligonucleotide oligo(dT)20 or the ssRNA oligonucleotide oligo (rU)20 were used. Time-course experiments were performed under the conditions described above. Samples were taken at different time points and processed as described above.
Variation of the ATPase reaction as a function of time was fitted to the mixed-exponential equation: [drawing 3] (3) where [P] is the concentration of products (pmols) at any given time point, t is time, Aburst is the burst amplitude, k burst is the rate of the exponential phase, k ss is the rate of the steady-state linear phase.

Series [2] relates to 18/36mer ds RNA oligonucleotide. Briefly: RNA helicase assay. Format: biochemical. From the text:
(§2) The helicase activity of DDX3wt and mutant forms was monitored by measuring the conversion of a double stranded (ds) DNA or RNA (labelled at the 5′-end of one strand with a 6-FAM fluorescent group) into single stranded (ss) nucleic acid. For the RNA helicase assay, a 18/36mer ds RNA oligonucleotide with both 3′ and 5′-protruding ss ends was used. For the DNA helicase assay, three different dsDNA substrates were used, all of them composed of the same 18mer oligonucleotide 5′-FAM labelled and three different 38 mer oligonucleotides with the sequence complementary to the 18 mer at different positions. Annealing of the 18 mer to each of the 38 mer generated the different DNA substrates shown in Fig. 5 A. A final concentration of 20 nM RNA or DNA substrate was used in the experiments, unless otherwise stated. The amounts of the different DDX3 proteins are indicated in the respective Figures.
(§3) Reactions were performed in 50 mM TrisHCl pH 7.5, 1 mM DTT, 0.2 mg/ml BSA, 5% glycerol and 1 mM ATP, 10 mM MgCl2 at 37°C degrees for 10′ and stopped by adding EDTA 50 mM pH 8. Products were separated on a native 7% PAGE […] at 5 W in TBE buffer with 0.1% SDS at 4°C for 2 hours for RNA substrates, 4 hours for DNA substrates. Substrates and products were quantified by laser scanning densitometry (Thyphoon-TRIO, GE Healthcare). For trap-assays, the enzyme and the RNA substrate were incubated on ice for 4 min, in the absence of ATP. Reactions were started by addition of ATP and a 50-fold molar excess (1 µM) of r(A)40 trap RNA oligonucleotide, followed by incubation at 37°C for the indicated times.
Variation of the amount of unwound RNA substrate as a function of time was fitted to a simple exponential equation: [drawing 4] (4) where MAX is the amount of unwound substrate extrapolated at infinite time, kuw is the apparent rate of unwinding.

Series [3] has as its system partially dsDNA substrates (18/38-mer). The series can be described thus: DNA helicase assay. Type of series: biochemical.
From the text: as §2, §3

Series [4] is described as follows: ATPase activity assay ([γ-32P]ATP hydrolysis, TLC), steady-state kinetics. Format: biochemical. On the procedure:
as §1
ATPase reactions were performed as described, in the presence of increasing amounts of nucleic acids and variable ATP concentrations. […] The relative -fold increase in the ATPase velocities 1−(vDNA/v) as a function of the nucleic acid concentrations was fitted to the hyperbolic relationship: [drawing 2] (2) where vNA is the apparent velocity of the reaction in the presence of nucleic acid, v is the velocity in its absence, KD is the apparent affinity for the nucleic acid and [NA] is the concentration of the nucleic acid substrate. The symbol KD is used, instead of Km, solely to reflect the fact that the NA is not a reactant (i.e. it is not converted into products) but only a cofactor of the reaction, without implying any assumption on the nature of the microscopic rates contributing to the KD value itself.

Another series deals with T1, DDX3wt (Homo sapiens, UniProt O00571).
T1 construct: DDX3wt (aa 1–662), and the N-DDX3 (aa 1–427); N-terminal peptide of ~3 kDa comprising 6xHis (pTrcHisA) (N); seven additional amino acids KQGCFGG (C); made in house; host or cells: E. coli BL-21
Briefly: Inhibition of DDX3wt ATPase activity. The conditions noted are these: increasing amounts of inhibitor. Format: biochemical. As for the experimental part: as §1

The target in another series is T2, N-DDX3 (Homo sapiens, UniProt O00571).
T2 construct: The N-DDX3 mutant (aa 1–427) was obtained using the forward primer; N-terminal peptide of ~3 kDa comprising 6xHis (pTrcHisA) (N); seven additional amino acids KQGCFGG (C); made in house; host or cells: E. coli BL-21
The series can be described thus: Inhibition of N-DDX3 ATPase activity. Type of series: biochemical. The note with it: increasing amounts of inhibitor. On the procedure: as §1

The mark [5] stands for this setting: relative to absence of nucleic acid.

Ends that are not written are not given here.

T1 sequence (O00571 whole entry, the tested form may be a part): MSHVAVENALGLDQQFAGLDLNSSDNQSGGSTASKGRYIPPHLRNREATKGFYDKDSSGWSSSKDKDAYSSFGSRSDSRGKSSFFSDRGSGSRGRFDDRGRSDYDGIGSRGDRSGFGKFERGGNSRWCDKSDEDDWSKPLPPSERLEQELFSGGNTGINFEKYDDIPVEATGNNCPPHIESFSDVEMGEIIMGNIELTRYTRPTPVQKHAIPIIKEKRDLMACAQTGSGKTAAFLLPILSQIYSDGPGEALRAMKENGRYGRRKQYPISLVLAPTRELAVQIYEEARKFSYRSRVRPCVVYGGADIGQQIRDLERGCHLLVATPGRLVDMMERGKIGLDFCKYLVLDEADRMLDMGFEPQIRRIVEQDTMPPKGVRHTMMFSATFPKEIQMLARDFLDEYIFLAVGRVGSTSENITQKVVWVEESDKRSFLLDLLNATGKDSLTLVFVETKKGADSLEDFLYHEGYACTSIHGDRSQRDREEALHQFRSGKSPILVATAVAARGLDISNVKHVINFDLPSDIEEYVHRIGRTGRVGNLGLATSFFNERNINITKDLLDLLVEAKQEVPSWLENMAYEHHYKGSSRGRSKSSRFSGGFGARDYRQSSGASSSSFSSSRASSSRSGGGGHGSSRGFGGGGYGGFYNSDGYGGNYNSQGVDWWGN
T2 sequence (O00571 1-427): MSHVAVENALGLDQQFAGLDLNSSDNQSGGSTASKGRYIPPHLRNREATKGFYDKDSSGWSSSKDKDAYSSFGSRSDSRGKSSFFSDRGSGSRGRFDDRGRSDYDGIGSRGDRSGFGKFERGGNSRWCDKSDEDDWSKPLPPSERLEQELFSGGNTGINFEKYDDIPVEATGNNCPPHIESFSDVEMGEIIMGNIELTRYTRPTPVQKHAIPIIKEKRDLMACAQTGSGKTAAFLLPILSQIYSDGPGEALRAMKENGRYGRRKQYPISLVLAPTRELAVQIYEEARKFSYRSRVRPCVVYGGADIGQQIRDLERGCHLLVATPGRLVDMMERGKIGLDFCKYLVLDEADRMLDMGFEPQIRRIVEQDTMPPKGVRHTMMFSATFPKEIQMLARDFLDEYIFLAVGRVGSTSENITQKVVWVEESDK

In the case of SDVPTQVGGRRRRRRRRR [DDX3-INS1], the “Toxicity for the cells” value in the series on HelaP4 cells is recorded as “not toxic”.
“DDX3wt: recombinant full length human DDX3 (aa 1–662), N-terminal his-tagged, expressed in E. coli”: the Aburst in series [1] (+DNA, oligo(dT)20) came to 0.9 ± 0.1 µM; in series [1] (+RNA, oligo(rU)20), 0.75 ± 0.1 µM; in series [1] (absence of nucleic acids) it was 0.25 ± 0.05 µM. In addition, the k burst in series [1] (+DNA, oligo(dT)20) amounted to 9.5 ± 0.8 min⁻¹; in series [1] (+RNA, oligo(rU)20), 7 ± 0.8 min⁻¹; in series [1] (absence of nucleic acids), 4.1 ± 0.7 min⁻¹. The k ss in series [1] (+DNA, oligo(dT)20) stood at 0.4 ± 0.03 min⁻¹; in series [1] (+RNA, oligo(rU)20), 0.4 ± 0.09 min⁻¹; in series [1] (absence of nucleic acids), 0.3 ± 0.08 min⁻¹. Besides, in series [2], the “Reduction of RNA unwinding rate by addition of the trap” value is “about 2 fold”. The “k uw (apparent rate of RNA unwinding)” value in series [2] (+trap, 50-fold molar excess r(A)40 ssRNA, single-turnover) came out at 0.05 ± 0.01 min⁻¹; in series [2] (without trap) it was 0.11 ± 0.02 min⁻¹. The DNA unwinding result in series [3] (DNA duplex with a single 5′-protruding end, 18/[5′]-38 mer) is “able to unwind”; in series [3] (DNA duplex with both 5′- and 3′-protruding ssDNA ends, 18/[5′-3′]-38 mer), “able to unwind”; in series [3] (substrate with a 3′-ss DNA region, 18/[3′]-38 mer), “not”. The k cat in series [4] (+DNA, oligo(dT)20) amounted to 0.0633 ± 0.0033 s⁻¹; in series [4] (+RNA, oligo(rU)20) it was 0.0533 ± 0.0017 s⁻¹; in series [4] (absence of nucleic acids) it was 0.0267 ± 0.0033 s⁻¹. Besides, the “Intrinsic ability to hydrolyze ATP” value in series [4] (absence of nucleic acid) is “detectable ATPase activity”. Besides, the “Increase of catalytic efficiency (kcat/Km) by DNA” value in series [4] (setting [5]) worked out at 3.2 fold. Moreover, the “Increase of catalytic efficiency (kcat/Km) by RNA” value in series [4] (setting [5]) was determined as 2.8 fold.
Turning to `O=C(CN1C(=O)/C(=C/c2cccc(Br)c2)SC1=S)Nc1ccccc1O` [FE15], the “Inhibition of ATP hydrolysis” value at DDX3wt and on N-DDX3 was “inhibited” in each case.

The record behind these values is article PMC3093405, “A Motif Unique to the Human Dead-Box Protein DDX3 Is Important for Nucleic Acid Binding, ATP Hydrolysis, RNA/DNA Unwinding and HIV-1 Replication” (PLoS ONE, 2011).
